# Measured values taken from US20150183791A1, “IMIDAZO[1,2-b]PYRIDAZINE-BASED COMPOUNDS, COMPOSITIONS COMPRISING THEM, AND METHODS OF THEIR USE” (LEXICON PHARMACEUTICALS, INC., priority 2013, published 2015).
# Tests used:
# [1] = biological target: T1, AAK1 (full length human) transfected with Flag/AP2MI in HEK293F cells; phospho-mu2 (Homo sapiens, UniProt Q2M2I8); assay: HEK281 cell-based assay; settings: HEK293F cells transfected with human AAK1 and AP2M1, 3 hours with compound, phospho-mu2 Western blot normalized to total Mu2
# T1 construct: HA; expressed in transfected cells; host or cells: HEK293F
# T1 sequence (Q2M2I8 1-863 isoform Q2M2I8-2): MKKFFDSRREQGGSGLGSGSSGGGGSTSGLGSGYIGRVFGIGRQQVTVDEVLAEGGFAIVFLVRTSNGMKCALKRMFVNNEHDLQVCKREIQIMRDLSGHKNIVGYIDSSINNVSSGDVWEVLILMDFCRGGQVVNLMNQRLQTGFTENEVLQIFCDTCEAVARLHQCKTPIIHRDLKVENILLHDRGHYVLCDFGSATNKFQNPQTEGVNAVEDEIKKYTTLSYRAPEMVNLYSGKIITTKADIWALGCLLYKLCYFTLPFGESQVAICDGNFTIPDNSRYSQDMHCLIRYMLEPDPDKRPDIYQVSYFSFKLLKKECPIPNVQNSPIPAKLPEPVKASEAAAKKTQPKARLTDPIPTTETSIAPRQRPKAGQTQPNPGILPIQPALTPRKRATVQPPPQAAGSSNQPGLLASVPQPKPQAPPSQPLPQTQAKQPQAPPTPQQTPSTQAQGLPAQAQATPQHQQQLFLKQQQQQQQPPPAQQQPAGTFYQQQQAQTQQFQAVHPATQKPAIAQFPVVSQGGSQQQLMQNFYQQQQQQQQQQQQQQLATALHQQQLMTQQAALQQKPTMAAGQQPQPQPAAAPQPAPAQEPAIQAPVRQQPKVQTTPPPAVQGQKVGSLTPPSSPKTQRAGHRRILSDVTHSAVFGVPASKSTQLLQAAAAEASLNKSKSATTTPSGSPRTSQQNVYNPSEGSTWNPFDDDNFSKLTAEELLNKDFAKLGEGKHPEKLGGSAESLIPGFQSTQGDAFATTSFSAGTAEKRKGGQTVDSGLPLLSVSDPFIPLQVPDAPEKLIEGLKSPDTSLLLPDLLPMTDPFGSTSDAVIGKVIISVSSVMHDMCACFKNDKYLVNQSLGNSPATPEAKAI
# Description: HEK293F cells were cultured in media containing DMEM (Gibco, cat. #11965), 10% FBS (SAFC Biosciences, cat. #12103C), 1×GPS (glutamine, penicillin and streptomycin). On day one, cells were plated on a 10 cm dish so that they are ˜80% confluent at time of transfection. Roughly 12 million cells were in a 10 cm dish at time of transfection. On day two, each dish was transfected with 48 ug DNA and 144 ul Lipofectamine 2000 (Invitrogen, cat.#11668-019). The DNA was comprised of a mixture (per 10 cm dish) containing 3 ug AAK1/HA/pIRES (full length human, NCBI accession no. NP_055726.2), 45 μg Flag/AP2MI/pcDNA (full length human), and 1.5 ml OPTI-MEM. The Lipofectamine 2000 is made up of a mixture (per 10 cm dish) containing 144 μl Lipofectamine 2000 and 1.5 ml OPTI-MEM. Each mixture was transferred to individual 15 ml tubes and incubated at room temperature for 5 minutes, and then the two mixes were combined and incubated at room temperature for 20 minutes. Growth media was then aspirated from each 10 cm plate and replaced with 10 ml of DMEM+10% FBS (no GPS). Finally, 3 ml DNA/Lipofectamine mix was added to each 10 cm dish and mix gently followed by incubate of plate overnight at 37° C. and 5% CO2.
# On day three, compounds were diluted in 100% DMSO at 1000× final concentration, followed by 3-fold serial dilutions for a total of 5 concentrations tested. Four compounds were tested per 10 cm dish. One ul of each compound dilution was then pipetted into a deep-well, 96-well plate, followed by addition of 500 μl DMEM+0.5% FBS into each well for a 2× final concentration of each compound. Cells were resuspended in a 10 cm dish by simple pipetting (HEK293 cells come off the plate that easy at this point) and then transferred to a 50 ml conical tube and pelleted by centrifugation at 1000 rpm for 5 min. Cell pellets were then resuspended in 2.75 ml DMEM+0.5% FBS per 10 cm dish and 100 μl of cell suspension transferred into each well of 96-well TC plate. Finally, 100 μl of 2× compound diluted in DMEM+0.5% FBS was then added into wells containing cell suspension for a 1× final concentration. Plates were then incubated at 37° C. and 5% CO2 for 3 hours followed by transferring of cell suspensions from each well into 12-tube PCR strips. The PCR strips were spun in a tip rack at 1000 rpm for 5 minutes to pellet cells and media was then removed by pipetting without disturbing the cell pellet.
# To prepare for Western Blot analysis, cell pellets were resuspend in 40 ul 1×LDS-PAGE sample buffer (Invitrogen, cat.# NP0008) +2× Halt phophatase and protease inhibitor cocktail (Thermo Scientific, cat.#1861284), followed by sonicating each with microtip sonicator set at 5 for 8-10 seconds. Five ul of 10× NuPage Sample Reducing Agent (with […]) was to each sample followed by heat denaturing at 70 C for 10 min on PCR machine. A total of 10 μl per sample was loaded into each lane of a 4-20% Tris-Glycine Criterion 26-well gel (Biorad, cat.#345-0034) for the phospho-mu2 blot and 10 μl per lane in a 4-12% Bis-Tris (+MES buffer) NuPAGE 26-well gel (Invitrogen, cat.# WG1403BX10) for the mu2 blot. For controls, 2 ng of phospho-mu2 or 20 ng mu2/Flag proteins were loaded in the last well of each gel. After SDS-PAGE, samples on each gel were transferred to PVDF membrane using an iBlot and membranes were blocked for one hour in TBST+5% milk, followed by wash 3× for 5-10 min with TBST. Criterion gels were probed with rabbit anti-phospho-mu2 (1:5000; a rabbit polyclonal antibody produced by New England Peptide and affinity purified at Lexicon) in TBST+5% BSA, whereas, NuPAGE gels were probed with mouse anti-Flag (1:500; Sigma, cat.# F1804) in TBST+5% milk, and these primary antibodies were incubated overnight at 4° C. on a rocker. […]
# [2] = biological target: AAK1 (full-length human protein) (Homo sapiens, UniProt Q2M2I8); assay: P81 filter plate assay; assay type: biochemical
# AAK1 (full-length human protein), sequence (Q2M2I8 1-863 isoform Q2M2I8-2): as above
# Description: Compounds were serially diluted into a Labcyte LDV plate (Labcyte, cat# LP-0200) using a Mutiprobe (PerkinElmer) and Biomek FX (Beckman Coulter) so that the highest compound concentration was at 96 μM. Compounds were then pinged (75 nL per well) into a Greiner 384-well reaction plate (Greiner, #781076) using an ECHO 550 Liquid Handler (Labcyte). A total of 12 μl reaction buffer (IMAP buffer containing Tween and DTT, from Molecular Devices) was then added to each well of columns 1 and 13 for the negative controls and 12 μl of 2×AAK1 (0.2 nM full-length human protein, NCBI accession no. NP_055726.2) was added to the remaining wells. Enzyme was then pre-incubated with compound for 10 minutes at room temperature. Reactions were initiated upon Minitrak (PerkinElmer) addition of 12 μl substrate mix containing 2× Mu2 (0.2 μM, full length human protein), 2× cold ATP (2 μM), and 1.3 μCi of hot ^33P-ATP. Reactions proceeded for one hour at room temperature. Meanwhile, Millipore 384-well P81 filter plates (Millipore, catalog # MZPHN0 W10) were placed on a plate washer (Zoom ZW, from Titertek) and pre-wet with 50 μl 1% phosphoric acid. Kinase reactions were then stopped upon addition of 24 μl of 2% phosphoric acid to each well and the Minitrak was then used to transfer 40 μl from each well into the pre-wet Millipore 384-well P81 filter plates. Reaction mixtures were incubated for 10 minutes at room temperature in the P81 plates, followed by washing five times with 100 μl/well of 1% phosphoric acid using the Zoom filter washer. The bottom of each filter plate was sealed followed by addition of 20 μl Microscint 40 to each well, sealing the top of the plates with Flashplate cover, and then waiting one hour until reading on the TopCount (Perkin Elmer).
# [3] = 0.2 nM-scale full-length human AAK1, Mu2 substrate, 33P-ATP, one hour at room temperature, class symbols
SMILES,CBA IC50 [1],"IC50 [2, 3] [nM]","IC50 ([2]; same assay, given as numeric bound instead of class symbol) [nM]"
"CC(C)CCC(=O)c1cccc(-c2ccc3ncc(-c4ccc(CN)cc4)n3n2)c1 [1-(3-(3-(4-(Aminomethyl)phenyl)imidazo[1,2-b]pyridazin-6-yl)phenyl)-4-methylpentan-1-one]",** (“**” means a value of less than or equal to 0.1 μM),≤ 10,–
"CC(=O)c1cccc(-c2ccc3ncc(-c4ccc(CN)cc4)n3n2)c1 [1-(3-(3-(4-(Aminomethyl)phenyl)imidazo[1,2-b]pyridazin-6-yl)phenyl)ethanone]",** (“**” means a value of less than or equal to 0.1 μM),≤ 10,–
"CCCCCc1ccc2ncc(-c3ccc(C(C)=O)s3)n2n1 [1-(5-(6-Pentylimidazo[1,2-b]pyridazin-3-yl)thiophen-2-yl)ethanone]",* (“*” means less than or equal to 1.0 μM),–,–
"CC(C)CNC(=O)c1cccc(-c2ccc3ncc(-c4ccc(CN)cc4)n3n2)c1 [3-(3-(4-(Aminomethyl)phenyl)imidazo[1,2-b]pyridazin-6-yl)-N-isobutylbenzamide]",** (“**” means a value of less than or equal to 0.1 μM),≤ 10,–
"CC(=O)c1cccc(-c2ccc3ncc(-c4ccc(C(N)=O)cc4)n3n2)c1 [4-(6-(3-Acetylphenyl)imidazo[1,2-b]pyridazin-3-yl)benzamide]",* (“*” means less than or equal to 1.0 μM),–,–
"CC(=O)c1ccc(-c2cnc3ccc(-c4ccc(C#N)cc4)nn23)s1 [4-[3-(5-Acetyl-thiophen-2-yl)-imidazo[1,2-b]pyridazin-6-yl]-benzonitrile]",* (“*” means less than or equal to 1.0 μM),–,–
"CC(C)CNC(=O)c1cncc(-c2ccc3ncc(-c4ccc(CN)cc4)n3n2)c1 [5-(3-(4-(Aminomethyl)phenyl)imidazo[1,2-b]pyridazin-6-yl)-N-isobutylnicotinamide]",** (“**” means a value of less than or equal to 0.1 μM),≤ 10,–
"COc1cnccc1-c1cnc2ccc(-c3cccc(C(=O)NCC(C)C)c3)nn12 [N-isobutyl-3-(3-(3-methoxypyridin-4-yl)imidazo[1,2-b]pyridazin-6-yl)benzamide]",* (“*” means less than or equal to 1.0 μM),≤ 10,–
"CNC(=O)c1ccc(-c2cnc3ccc(-c4cccc(C(=O)NCC(C)C)c4)nn23)cc1 [N-isobutyl-3-(3-(4-(methylcarbamoyl)phenyl)imidazo[1,2-b]pyridazin-6-yl)benzamide]",* (“*” means less than or equal to 1.0 μM),≤ 10,–
"CC(C)CNC(=O)c1cccc(-c2ccc3ncc(-c4ccncc4)n3n2)c1 [N-isobutyl-3-(3-(pyridin-4-yl)imidazo[1,2-b]pyridazin-6-yl)benzamide]",* (“*” means less than or equal to 1.0 μM),–,> 300
